Calls of active or inactive are those of the source. The rule behind the calls is not given here.

The target of the first assay is T1, Mitogen-activated protein kinase 14 (Homo sapiens, UniProt Q16539). The assay can be described thus: Inhibition of p38alpha phosphorylation in human U266 cells at 10 uM after 3 hrs by western blot analysis. The assay is classed as cell-based. In general terms: Immunoblotting shows a protein as a band on a membrane.
T1 sequence (Q16539 whole entry): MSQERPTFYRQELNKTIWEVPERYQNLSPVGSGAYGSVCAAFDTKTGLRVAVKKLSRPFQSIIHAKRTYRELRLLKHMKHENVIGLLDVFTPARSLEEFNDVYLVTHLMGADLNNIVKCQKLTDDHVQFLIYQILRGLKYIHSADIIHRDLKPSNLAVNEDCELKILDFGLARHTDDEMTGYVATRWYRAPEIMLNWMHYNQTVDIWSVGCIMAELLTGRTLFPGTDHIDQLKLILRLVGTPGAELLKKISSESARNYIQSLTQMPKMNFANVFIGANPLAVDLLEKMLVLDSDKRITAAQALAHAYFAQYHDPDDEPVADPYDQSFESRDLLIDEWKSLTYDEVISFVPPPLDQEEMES
Usually inhibition stands for the change of the read-out against control, counted positive when it falls. On to `Cc1ccc(C2=Nc3c(ncnc3S(=O)(=O)c3ccc(C)cc3)[S+]([O-])c3ccc(C)cc32)cc1` (stereo unspecified), for which the inhibition entry was “Active”.

A further assay addresses T1, Mitogen-activated protein kinase 14. The assay can be described thus: Inhibition of p38alpha phosphorylation in human MM1S cells after 3 hrs by western blot analysis. The class given is cell-based.
Turning to `Cc1ccc(C2=Nc3c(ncnc3S(=O)(=O)c3ccc(C)cc3)[S+]([O-])c3ccc(C)cc32)cc1` (stereo unspecified), the inhibition entry was “Dose-dependent effect”.

A further assay shares this target. The assay can be described thus: Inhibition of full length recombinant human GST-tagged p38alpha expressed in Escherichia coli at 10 uM using Ser/Thr04 peptide as substrate in presence of inactive MAPKAPK2 after 1 hr by FRET assay relative to control.
With `Cc1ccc2c(c1)C(Cc1ccccc1)=Nc1c(NC3CCCCC3)ncnc1S2`, the inhibition is 29%. With `Cc1ccc(Sc2ncnc3c2N=C(c2ccc(F)cc2)c2cc(C)ccc2S3)cc1`, the inhibition amounted to 0%. `CCCCNc1ncnc2c1N=C(c1ccccc1)c1cc(C)ccc1S2`: the inhibition was -4%. On to `Cc1ccc2c(c1)C(c1ccc(F)cc1)=Nc1c(NCCO)ncnc1S2`, for which the inhibition is -3%.

`Cc1ccc(Sc2ncnc3c2N=C(c2ccccc2)c2cc(C)ccc2S3)cc1`: the inhibition was found to be 12%.

Regarding `Cc1ccc(Sc2ncnc3c2N=C(Cc2ccccc2)c2cc(C)ccc2S3)cc1`, the inhibition was found to be 1%. Regarding `Clc1ccc(Sc2ncnc3c2N=C(Cc2ccccc2)c2cc(Cl)ccc2S3)cc1`, the inhibition worked out at 0%. Still for that read-out and setting: the figure for `CCCC1=Nc2c(Sc3ccc(C)cc3)ncnc2Sc2ccc(C)cc21` is 16%; for `c1ccc(Sc2ncnc3c2N=C(c2ccccc2)c2ccccc2S3)cc1` it is 18%. For the compound `O=[N+]([O-])c1ccccc1C1=Nc2c(Sc3ccccc3)ncnc2Sc2ccccc21`, the inhibition came out at 63%. `c1ccc(C2=Nc3c(ncnc3N3CCCC3)Sc3ccccc32)cc1`: the inhibition was -4%. As to `Cc1ccc([S+]([O-])c2ncnc3c2N=C(c2cccnc2)c2cc(C)ccc2S3)cc1` (stereo unspecified), the inhibition turned out to be 100%. Still for that read-out and setting: the figure for `Cc1ccc([S+]([O-])c2ncnc3c2N=C(c2ccccc2)c2cc(C)ccc2S3)cc1` (stereo unspecified) is 95%; for `c1ccc(CC2=Nc3c(Sc4ccccc4)ncnc3Sc3ccccc32)cc1` it is 9%. Consider `COc1ccc(Sc2ncnc3c2N=C(Cc2ccccc2)c2cc(OC)ccc2S3)cc1`, for which the inhibition was 10%. On the same count and under the same terms, the figure for `Cc1ccc(C2=Nc3c(ncnc3S(=O)(=O)c3ccc(C)cc3)[S+]([O-])c3ccc(C)cc32)cc1` (stereo unspecified) is 100%. Consider `Cc1ccc2c(c1)C(c1ccc(F)cc1)=Nc1c(N)ncnc1S2`, for which the inhibition was found to be 4%.

`CCCC1=Nc2c(Sc3ccccc3)ncnc2Sc2ccccc21`: the inhibition stood at 11%. Take `c1ccc(Sc2ncnc3c2N=C(c2cccnc2)c2ccccc2S3)cc1`: the inhibition stood at 98%.

For the compound `Cc1ccc(S(=O)(=O)c2ncnc3c2N=C(c2ccccc2)c2cc(C)ccc2[S+]3[O-])cc1` (stereo unspecified), the inhibition amounted to 100%. In the case of `Cc1ccc(Sc2ncnc3c2N=C(c2cccnc2)c2cc(C)ccc2S3)cc1`, the inhibition is 4%. Consider `Cc1ccc(C2=Nc3c(Sc4ccc(Cl)cc4)ncnc3Sc3ccc(Cl)cc32)cc1`, for which the inhibition worked out at 4%. The same measure, in the same setting: the figure for `[O-][S+](c1ccc(Cl)cc1)c1ncnc2c1N=C(c1ccccc1)c1cc(Cl)ccc1S2` (stereo unspecified) is 98%; for `Clc1ccc(Sc2ncnc3c2N=C(c2ccccc2)c2cc(Cl)ccc2S3)cc1` it is 3%; for `Cc1ccc(C2=Nc3c(ncnc3[S+]([O-])c3ccc(C)cc3)Sc3ccc(C)cc32)cc1` (stereo unspecified) it is 88%. On the same count and under the same terms, as for `CCCCNc1ncnc2c1N=C(c1ccccc1)c1cc(Cl)ccc1S2`, the figure is -6%; as for `Cc1ccc2c(c1)C(c1cccnc1)=Nc1c(NCc3ccccc3)ncnc1S2`, 18%.

For `CCCC1=Nc2c(NCc3ccccc3)ncnc2Sc2ccccc21`, the inhibition was 5%.

Take `CCCC1=Nc2c(ncnc2[S+]([O-])c2ccccc2)Sc2ccccc21` (stereo unspecified): the inhibition is 73%. For `Cc1ccc(C2=Nc3c(NC4CCCCC4)ncnc3Sc3ccc(Cl)cc32)cc1`, the inhibition is 11%. With `Cc1ccc(C2=Nc3c(ncnc3[S+]([O-])c3ccc(Cl)cc3)Sc3ccc(Cl)cc32)cc1` (stereo unspecified), the inhibition stood at 99%. Same read-out and setting: the figure for `Cc1ccc2c(c1)C(Cc1ccccc1)=Nc1c(NCc3ccccc3)ncnc1S2` is 19%; for `COc1ccc(Sc2ncnc3c2N=C(c2ccc(C)cc2)c2cc(OC)ccc2S3)cc1` it is 30%. Same read-out and setting: the figure for `Cc1ccc(C2=Nc3c(NCc4ccccc4)ncnc3Sc3ccc(Cl)cc32)cc1` is -2%. On to `Fc1ccc(C2=Nc3c(Sc4ccccc4)ncnc3Sc3ccccc32)cc1`, for which the inhibition is 7%.

For the next assay the target is unchanged. The assay can be described thus: Inhibition of full length recombinant human GST-tagged p38alpha expressed in Escherichia coli by Z'-Lyte assay.
In general, IC50 refers to the concentration at which inhibition is half-maximal. Take `Cc1ccc(C2=Nc3c(ncnc3S(=O)(=O)c3ccc(C)cc3)[S+]([O-])c3ccc(C)cc32)cc1` (stereo unspecified): the IC50 worked out at 42.7 nM. Consider `c1ccc(Sc2ncnc3c2N=C(c2cccnc2)c2ccccc2S3)cc1`, for which the IC50 worked out at 1250 nM.

As to `[O-][S+](c1ccc(Cl)cc1)c1ncnc2c1N=C(c1ccccc1)c1cc(Cl)ccc1S2` (stereo unspecified), the IC50 is 855 nM. Same read-out and setting: the figure for `CCCC1=Nc2c(ncnc2[S+]([O-])c2ccccc2)Sc2ccccc21` (stereo unspecified) is 969 nM.

These data come from ChEMBL document CHEMBL3997765 (Medchemcomm, 2016).
